Measurements taken from PubChem BioAssay (NCI).
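Assay format: 96-well plates, 48-hour exposure. At the GI50, growth is halved. Definition used: TGI = concentration required for complete inhibition of growth.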

Experiments:
Assay in all cases: NCI tumour cell line growth inhibition, 48 h
786-0 renal = tested on: 786-0 renal
SF-295 CNS = tested on: SF-295 CNS
HOP-62 NSCLC = tested on: HOP-62 NSCLC
EKVX NSCLC = tested on: EKVX NSCLC
PC-3 prostate = tested on: PC-3 prostate
SNB-75 CNS = tested on: SNB-75 CNS
DU-145 prostate = tested on: DU-145 prostate
SNB-19 CNS = tested on: SNB-19 CNS
NCI-H226 lung = tested on: NCI-H226 lung
OVCAR-8 ovarian = tested on: OVCAR-8 ovarian

SMILES: COc1ccc2c(c1)CCc1c(-c3noc4c3CCc3cc(OC)ccc3-4)noc1-2
- TGI (786-0 renal): > 100 µM
- TGI (SF-295 CNS): > 100 µM
- TGI (HOP-62 NSCLC): > 100 µM
- TGI (EKVX NSCLC): > 100 µM
- TGI (PC-3 prostate): > 100 µM
- TGI (SNB-75 CNS): > 100 µM
- TGI (DU-145 prostate): > 100 µM
- TGI (SNB-19 CNS): > 100 µM
- TGI (NCI-H226 lung): > 100 µM
- TGI (OVCAR-8 ovarian): > 100 µM

SMILES: NC1=C(Cl)C(=O)c2ccc(S(N)(=O)=O)cc2C1=O
- GI50 (786-0 renal): 1.82 µM
- TGI (786-0 renal): 3.24 µM
- GI50 (SF-295 CNS): 0.143 µM
- TGI (SF-295 CNS): 0.289 µM
- GI50 (HOP-62 NSCLC): 0.251 µM
- TGI (HOP-62 NSCLC): 0.596 µM
- GI50 (EKVX NSCLC): 1.53 µM
- TGI (EKVX NSCLC): 2.91 µM
- GI50 (PC-3 prostate): 0.314 µM
- TGI (PC-3 prostate): 1.5 µM
- GI50 (SNB-75 CNS): 0.144 µM
- TGI (SNB-75 CNS): 0.293 µM
- GI50 (DU-145 prostate): 0.132 µM
- TGI (DU-145 prostate): 0.273 µM
- GI50 (SNB-19 CNS): 0.305 µM
- TGI (SNB-19 CNS): 1.05 µM
- GI50 (NCI-H226 lung): 0.231 µM
- TGI (NCI-H226 lung): 0.595 µM
- GI50 (OVCAR-8 ovarian): 0.273 µM
- TGI (OVCAR-8 ovarian): 0.977 µM

SMILES: O=C(O)C1NCCc2c1[nH]c1ccccc21 (configuration not stated)
- GI50 (786-0 renal): > 100 µM
- TGI (786-0 renal): > 100 µM
- TGI (SF-295 CNS): > 100 µM
- TGI (HOP-62 NSCLC): > 10 µM
- TGI (EKVX NSCLC): > 100 µM
- TGI (PC-3 prostate): > 10 µM
- GI50 (SNB-75 CNS): > 100 µM
- TGI (SNB-75 CNS): > 100 µM
- TGI (DU-145 prostate): > 10 µM
- GI50 (SNB-19 CNS): > 100 µM
- TGI (SNB-19 CNS): > 100 µM
- TGI (NCI-H226 lung): > 100 µM
- GI50 (OVCAR-8 ovarian): > 100 µM
- TGI (OVCAR-8 ovarian): > 100 µM

SMILES: C=C1C(=O)O[C@H]2[C@H]1CC/C(COC(=O)CCCCCCCCC(=O)OC/C1=C/CC[C@@]3(C)O[C@H]3[C@H]3OC(=O)C(=C)[C@@H]3CC1)=C\CC[C@@]1(C)O[C@@H]21
- GI50 (786-0 renal): 1.75 µM
- TGI (786-0 renal): 3.41 µM
- GI50 (SF-295 CNS): 2.56 µM
- TGI (SF-295 CNS): 8.09 µM
- GI50 (HOP-62 NSCLC): 2.03 µM
- TGI (HOP-62 NSCLC): 4.65 µM
- GI50 (EKVX NSCLC): 1.95 µM
- TGI (EKVX NSCLC): 4.29 µM
- GI50 (PC-3 prostate): 1.99 µM
- TGI (PC-3 prostate): 4.35 µM
- GI50 (SNB-75 CNS): 4.8 µM
- TGI (SNB-75 CNS): 19.6 µM
- GI50 (DU-145 prostate): 2.03 µM
- TGI (DU-145 prostate): 4.2 µM
- GI50 (SNB-19 CNS): 2.45 µM
- TGI (SNB-19 CNS): 6.51 µM
- GI50 (NCI-H226 lung): 2.75 µM
- TGI (NCI-H226 lung): 7.24 µM
- GI50 (OVCAR-8 ovarian): 3.07 µM
- TGI (OVCAR-8 ovarian): 8.1 µM

SMILES: c1cc(OCCN2CCCCCC2)ccc1CNc1ccc2nc(CCC3CCCCC3)[nH]c2c1
- GI50 (786-0 renal): 1.6 µM
- TGI (786-0 renal): 3.29 µM
- GI50 (SF-295 CNS): 1.94 µM
- TGI (SF-295 CNS): 3.82 µM
- GI50 (HOP-62 NSCLC): 1.85 µM
- TGI (HOP-62 NSCLC): 3.81 µM
- GI50 (EKVX NSCLC): 2.49 µM
- TGI (EKVX NSCLC): 9.58 µM
- GI50 (PC-3 prostate): 1.94 µM
- TGI (PC-3 prostate): 4.84 µM
- GI50 (SNB-75 CNS): 1.5 µM
- TGI (SNB-75 CNS): 4.52 µM
- GI50 (DU-145 prostate): 3.9 µM
- TGI (DU-145 prostate): 14.6 µM
- GI50 (SNB-19 CNS): 3.05 µM
- TGI (SNB-19 CNS): 11.4 µM
- GI50 (NCI-H226 lung): 1.88 µM
- TGI (NCI-H226 lung): 5.19 µM
- GI50 (OVCAR-8 ovarian): 2.27 µM
- TGI (OVCAR-8 ovarian): 6.34 µM

SMILES: O=c1cc(-c2ccc(Cl)cc2)[nH]c2ncccc12
- GI50 (786-0 renal): 34.1 µM
- TGI (786-0 renal): > 100 µM
- GI50 (SF-295 CNS): 40.7 µM
- TGI (SF-295 CNS): > 100 µM
- TGI (HOP-62 NSCLC): > 100 µM
- TGI (EKVX NSCLC): > 100 µM
- GI50 (PC-3 prostate): 47.6 µM
- TGI (PC-3 prostate): > 100 µM
- TGI (SNB-75 CNS): > 100 µM
- TGI (DU-145 prostate): > 100 µM
- TGI (SNB-19 CNS): > 100 µM
- TGI (NCI-H226 lung): > 100 µM
- TGI (OVCAR-8 ovarian): > 100 µM
